According to paper PMC9024523, “Phenoxyaromatic Acid Analogues as Novel Radiotherapy Sensitizers: Design, Synthesis and Biological Evaluation” (Molecules, 2022):
Values joined by “and” are separate entries in the source; they are usually repeats but may differ in a detail not shown here. Identical values can stand only once. “Also recorded” adds a separate entry of the source. Like-named read-outs stand apart in the source and are kept apart here.

Tests used:
mouse red blood cells [1] = test: In vitro red blood cell-based assay (oxygen equilibrium curve, Softron analyzer); details: final effector concentration 2 mM, mean ± SD; for P50/P50C: P50C = control with 1% DMSO; for P50: 1% DMSO; for P50 / ∆P50: mouse red blood cells; for ∆P50: ∆P50 = P50 − P50C
Excerpt: In the first stage of our research, three series of analogues were designed and synthesized to explore refinement of the hydrophobic parts of 19f, 19m, 24a and 24b; hinge areas of 18g, 19b and 19y; and tail regions of 15c, 15d and 16c, respectively. We used the Softron Analyzer to evaluate the effect of these compounds on the half-blood oxygen saturation(P50) value of red blood cells. The most promising phenoxyaromatic acid compound, efaproxiral, was used as a positive control. […] The results reminded us that the modification of the hydrophobic part or linker extension is beneficial to improve an allosteric effect.
Eight-week-old female C57BL6J mice were purchased from Beijing Vital River Laboratory Animal Technology Co., Ltd. A total of 540 μL mouse blood was added into the 1.5 mL centrifuge tube, followed by adding 60 μL 3.8% sodium citrate. The mixture was then centrifuged at 1500 rpm for 10 min, the supernatant was carefully aspirated, and the cells were washed three times with PBS solution. After mixing packed red blood cells with Alsever’s solution in a ratio of 1:1, a blood gas analyzer (RADIOMETER ABL 90) was used to analyze the red blood cell density and hemoglobin concentration.
All of the compounds were prepared as 200 mM stock solutions in DMSO. Oxygen equilibrium measurements were performed with the Softron analyzer (Softron Medical Products, Beijing, China) using mouse red blood cells. The samples were prepared by adding 3 mg hemoglobin equivalent of red blood cells into 3.92 mL loading buffer (100 mM NaCl, 50 mM bis-Tris at pH 7.2 and 25 °C), followed by 20 μL 10% Dimethicone as a defoamer and 20 μL 20% BSA. Afterwards, 40 μL stock solution was added, and the mixture was loaded to the sample cell and fully deoxygenated by blowing into nitrogen at 37 °C for 15 min. Then, the oxygen equilibrium curve was recorded by blowing into oxygen.

HEK293 cells = test: Cell Titer-Glo cytotoxicity assay, HEK293; type: cell-based
Protocol: (§1) For further in vivo evaluation of newly synthesized compounds, 19c and 19t were selected as candidates. Hemoglobin allosteric effectors require a relatively high blood concentration to be effective. Cytotoxicity evaluation was conducted out of consideration for medication safety. HEK293 and U87MG cells were used to evaluate the cytotoxicity.
(§2) Luciferase-transfected human glioma cells (U87-luc) and HEK293 cells were kindly provided by Dr. Nie and cultured in Dulbecco’s Modified Eagle Medium (CM10013, MacGene) with 10% fetal bovine serum (1966173C, Gibco) and 1% penicillin-streptomycin in a humidified atmosphere of 5% CO2 at 37 °C.
(§3) Cells were plated in a 96-well plate at a density of 2000 cells/well and then treated with 19c or 19t at gradient concentrations of 10^1, 10^2, 10^3, 10^4, 10^5, 10^6and 10^7 nM. Compounds 19c and 19t were prepared as the sodium salt by adding saturated sodium bicarbonate in the process of stock solution preparation. Cell viability was evaluated on the indicated days after treatment with a Cell Titer-Glo Luminescent Cell Viability Assay kit (G7572, Promega, Madison, WI, USA) according to the manufacturer’s instructions. All data were normalized to those on day 0 and presented as the mean ± standard deviation (SD).

U87MG cells = test: Cell Titer-Glo cytotoxicity assay, U87MG; type: cell-based, human
Protocol: as §1, §2, §3

[2] = tested on: luciferase-labeled U87MG implanted into Balb/c nude mice brains; test: In vivo radiosensitization on orthotopically transplanted GB; set-up: species or system mouse; details: for overall survival time of tumor-bearing mice compared to vehicle control: 150 mg/kg ip combined with IR
Protocol: In order to evaluate in vivo antitumor effects, luciferase-labeled U87MG was implanted into Balb/c nude mice brains. A small animal bioluminescence imaging system was applied to trace the tumor formation and dynamic changes in GB size. Cobalt 60 was used for fractionated-dose whole-brain irradiation therapy (IR). The tumor was irradiated with a total dose of 12 Gy in four fractions of 3 Gy at a dose rate of 0.3 Gy/min. Efaproxiral or 19c was administrated at a dosage of 150 mg/kg by intraperitoneal injection (ip) every four days over a period of sixteen days. IR was conducted 15 min after ip.
Four-week-old female BALB/c nude mice were purchased from Beijing Vital River Laboratory Animal Technology Co., Ltd. Animals were monitored daily by certified veterinary staff and laboratory personnel. All mice used in this study were maintained in a pathogen-free barrier animal facility. The study was in compliance with all relevant ethical regulations regarding animal research. All animal experiments were approved by the Institutional Animal Care and Use Committee at the Beijing Institute of Basic Medical Sciences. The U87-luc cells were processed and resuspended into basal medium at a concentration of 10^7 cells/mL. Next, 8 × 10^5 U87-luc glioma cells were implanted into the right frontal lobes of each nude mouse. Ten days after tumor implantation, tumor-bearing mice were randomly divided into six groups according to the tumor size and subjected to the indicated treatment (n = 6). Administration of drugs (150mg/kg) or vehicle was performed once every 4 days four consecutive times by intraperitoneal injection. All radiation treatments were performed 25 min after the drug or vehicle was given. Tumors on the brains of mice were irradiated at a dosage of 3 Gy four consecutive times using a ^60Co γ irradiator. The dose rate was 0.3 Gy/min. The bodies of the mice were shielded using lead blocks. The tumor progress was tracked by a small animal live bioluminescence imaging system (LB983NC100U, Germany).

[3] = Pharmacokinetic study in rats; type: in vivo; details: rat; for AUC(0-inf) / AUC(0-t) / Cmax / Tmax / half-life / MRT inf: male, Sprague-Dawley, plasma; for MRT inf: read-out: MRTInf_obs; for AUC_%Extrap_obs: (AUCinf−AUClast)/AUCinf
Protocol: Based on the potential radiosensitization effects in vivo, we performed an in vivo pharmacokinetic (PK) study to preliminarily evaluate the druggability of 19c at a dosage of 100 mg/kg by intraperitoneal injection (ip) or oral administration (po).
The pharmacokinetic experiments with 19c in rats were performed by Beijing Pharmaron, Inc. All animals were maintained in the pathogen-free barrier animal facility, and the experiments were approved by the Animal Care and Use Committee of the company. The drug solution was formulated into a 10 mg/mL solution with normal saline on the day of administration. After a single dose of 19c (100 mg/kg) by intraperitoneal injection (ip) or oral administration (po) in male Sprague-Dawley rats (n = 3), blood samples were collected 0.25, 0.5, 1, 2, 4, 6, 8 and 24 h post dose and centrifuged at 4000× g for 5 min at 4 °C to obtain plasma. The plasma was diluted 3 times with water. A measure of 2 µL of diluted supernatant was injected into the LC/MS/MS system for quantitative analysis. […] The Phoenix WinNonlin 8.0 software was applied for the calculation of pharmacokinetic parameters.

mouse red blood cells [4] = test: In vitro red blood cell-based assay (oxygen equilibrium curve, Softron analyzer)

Cc1cc(C)cc(NC(=O)CCc2ccc(OC(C)(C)C(=O)O)cc2)c1 [19c, 2-(4-(3-((3,5-dimethylphenyl)amino)-3-oxopropyl)phenoxy)-2-methylpropanoic acid]
P50/P50C (mouse red blood cells [1]): 2.04 ± 0.04
P50 (mouse red blood cells [1]): 89.16 ± 5.20 mmHg
∆P50 (mouse red blood cells [1]): 45.50 mmHg and 45.50 ± 1.73 mmHg
cytotoxicity (summary statement) (HEK293 cells; HEK293 (normal) cells): no cytotoxicity
cytotoxicity (HEK293 cells; HEK293 cells, concentration of 5 mM): no cytotoxic effect
cytotoxicity (summary statement) (U87MG cells; U87MG (glioma) cells): no cytotoxicity
cytotoxicity (U87MG cells; U87MG cells, concentration of 5 mM): no cytotoxic effect
overall survival time of tumor-bearing mice compared to vehicle control [2]: could improve the overall survival time
radiosensitization effect in vivo (summary statement) ([2]; orthotopically transplanted GB in mouse brains): exhibited a radiosensitization effect; also recorded: effective GB radiosensitizer
AUC(0-inf) ([3]; ip 100 mg/kg): 612 µg·h/mL
AUC(0-t) ([3]; ip 100 mg/kg, saline): 612 µg·h/mL
Cmax ([3]; ip 100 mg/kg, saline): 202 µg/mL
Tmax ([3]; ip 100 mg/kg, saline): 0.25 h
half-life ([3]; ip 100 mg/kg, saline): 2.55 h
MRT inf ([3]; ip 100 mg/kg, saline): 2.32 h
AUC(0-inf) ([3]; po 100 mg/kg, saline): 411 µg·h/mL
AUC(0-t) ([3]; po 100 mg/kg, saline): 410 µg·h/mL
Cmax ([3]; po 100 mg/kg, saline): 111 µg/mL
Tmax ([3]; po 100 mg/kg, saline): 2 h
half-life ([3]; po 100 mg/kg, saline): 2.78 h
MRT inf ([3]; po 100 mg/kg, saline): 2.58 h
oral availability [3]: orally available
AUCinf ([3]; ip 100 mg/kg, saline): 612,428 h*ng/mL
AUC_%Extrap_obs ([3]; ip 100 mg/kg): 0.0362%
AUClast/D ([3]; ip 100 mg/kg): 6122
AUC_%Extrap_obs ([3]; po 100 mg/kg): 0.0522%
AUClast/D ([3]; po 100 mg/kg): 4104
clinical symptoms during the PK experiment ([3]; single dose 100 mg/kg ip or po): No abnormal clinical symptoms
influence on the Bohr effect of red blood cells (mouse red blood cells [4]; 2 mM, change in acidity, OEC shift): will not offset the Bohr effect; also recorded: preserved the Bohr effect
dose–response relationship of oxygen affinity of hemoglobin (mouse red blood cells [4]; different concentrations, oxygen dissociation curve): dose-dependently altered the oxygen affinity of hemoglobin; also recorded: exerts an allosteric effect on hemoglobin at a micromolar level

Cc1cc(C)cc(NC(=O)Cc2ccc(OC(C)(C)C(=O)O)cc2)c1 [Efaproxiral, 2-(4-(2-((3,5-dimethylphenyl)amino)-2-oxoethyl)phenoxy)-2-methylpropanoic acid, reference compound]
P50/P50C (mouse red blood cells [1]): 1.79 ± 0.02
P50 (mouse red blood cells [1]): 82.50 ± 1.01 mmHg
∆P50 (mouse red blood cells [1]): 36.40 mmHg
∆P50 (mouse red blood cells [1]; listed as Efaproxiral ( 19a )): 36.40 ± 1.01 mmHg
overall survival time of tumor-bearing mice compared to vehicle control [2]: could improve the overall survival time
